What was measured:
Test in all cases: Test E pre-/postemergence plant response
Assay type in all cases: in vivo
[1] = system: Italian ryegrass (Lolium multiflorum); details: scale 0 to 100
Method in brief: (§1)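 Formulated in a non-phytotoxic solvent mixture containing surfactant, compound was applied to soil at planting or sprayed on emerged plants at the 1- to 4-leaf stage. Visual comparison with controls followed 14 to 21 days in the greenhouse; 0 = no effect, 100 = complete control.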

[2] = system: barnyardgrass (Echinochloa crus-galli); details: scale 0 to 100
Method in brief: as §1

[3] = system: black mustard (Brassica nigra); details: scale 0 to 100
Method in brief: as §1

[4] = system: broadleaf signalgrass (Brachiaria platyphylla); details: scale 0 to 100
Method in brief: as §1

[5] = system: common mallow (Malva sylvestris); details: scale 0 to 100
Method in brief: as §1

[6] = system: common purslane (Portulaca oleracea); details: scale 0 to 100
Method in brief: as §1

[7] = system: green foxtail (Setaria viridis); details: scale 0 to 100
Method in brief: as §1

[8] = system: guineagrass (Panicum maximum); details: scale 0 to 100
Method in brief: as §1

[9] = system: kochia (Kochia scoparia); details: Preemergence, scale 0 to 100
Method in brief: as §1

[10] = system: large crabgrass (Digitaria sanguinalis); details: scale 0 to 100
Method in brief: as §1

[11] = system: naked crabgrass (Digitaria nuda); details: scale 0 to 100
Method in brief: as §1

[12] = system: pitted morningglory (Ipomoea lacunosa); details: scale 0 to 100
Method in brief: as §1

[13] = system: prickly sida (Sida spinosa); details: scale 0 to 100
Method in brief: as §1

[14] = system: purple nutsedge (Cyperus rotundus); details: scale 0 to 100
Method in brief: as §1

[15] = system: quackgrass (Elytrigia repens); details: scale 0 to 100
Method in brief: as §1

[16] = system: southern (S.) sandbur (Cenchrus echinatus); details: scale 0 to 100
Method in brief: as §1

[17] = system: surinam grass (Brachiaria decumbens); details: scale 0 to 100
Method in brief: as §1

## CCOC(=O)Oc1cnn(C)c(=O)c1-n1nc(-c2ccc(Cl)cc2)cc1C [Compound 53]
[1]; 16 g ai/ha, Preemergence
  Plant response rating, Ryegrass, Italian: 90
[1]; 31 g ai/ha, Preemergence
  Plant response rating, Ryegrass, Italian: 100
[1]; 62 g ai/ha, Preemergence
  Plant response rating, Ryegrass, Italian: 100
[1]; Postemergence, 8 g ai/ha
  Plant response rating, Ryegrass, Italian: 80
[1]; Postemergence, 16 g ai/ha
  Plant response rating, Ryegrass, Italian: 100
[1]; Postemergence, 31 g ai/ha
  Plant response rating, Ryegrass, Italian: 100
[1]; Postemergence, 62 g ai/ha
  Plant response rating, Ryegrass, Italian: 100
[2]; 16 g ai/ha, Preemergence
  Plant response rating, Barnyardgrass: 95
[2]; 31 g ai/ha, Preemergence
  Plant response rating, Barnyardgrass: 100
[2]; 62 g ai/ha, Preemergence
  Plant response rating, Barnyardgrass: 100
[2]; Postemergence, 8 g ai/ha
  Plant response rating, Barnyardgrass: 100
[2]; Postemergence, 16 g ai/ha
  Plant response rating, Barnyardgrass: 100
[2]; Postemergence, 31 g ai/ha
  Plant response rating, Barnyardgrass: 100
[2]; Postemergence, 62 g ai/ha
  Plant response rating, Barnyardgrass: 100
[3]; 16 g ai/ha, Preemergence
  Plant response rating, Mustard, Black: 0
[3]; 31 g ai/ha, Preemergence
  Plant response rating, Mustard, Black: 0
[3]; 62 g ai/ha, Preemergence
  Plant response rating, Mustard, Black: 25
[3]; Postemergence, 8 g ai/ha
  Plant response rating, Mustard, Black: 0
[3]; Postemergence, 16 g ai/ha
  Plant response rating, Mustard, Black: 0
[3]; Postemergence, 31 g ai/ha
  Plant response rating, Mustard, Black: 0
[3]; Postemergence, 62 g ai/ha
  Plant response rating, Mustard, Black: 0
[4]; 16 g ai/ha, Preemergence
  Plant response rating, Signalgrass: 40
[4]; 31 g ai/ha, Preemergence
  Plant response rating, Signalgrass: 98
[4]; 62 g ai/ha, Preemergence
  Plant response rating, Signalgrass: 98
[4]; Postemergence, 8 g ai/ha
  Plant response rating, Signalgrass: 90
[4]; Postemergence, 16 g ai/ha
  Plant response rating, Signalgrass: 95
[4]; Postemergence, 31 g ai/ha
  Plant response rating, Signalgrass: 95
[4]; Postemergence, 62 g ai/ha
  Plant response rating, Signalgrass: 100
[5]; 62 g ai/ha, Preemergence
  Plant response rating, Mallow: 0
[5]; Postemergence, 8 g ai/ha
  Plant response rating, Mallow: 0
[5]; Postemergence, 16 g ai/ha
  Plant response rating, Mallow: 0
[5]; Postemergence, 31 g ai/ha
  Plant response rating, Mallow: 0
[5]; Postemergence, 62 g ai/ha
  Plant response rating, Mallow: 0
[6]; 16 g ai/ha, Preemergence
  Plant response rating, Purslane: 0
[6]; 31 g ai/ha, Preemergence
  Plant response rating, Purslane: 0
[6]; 62 g ai/ha, Preemergence
  Plant response rating, Purslane: 0
[6]; Postemergence, 8 g ai/ha
  Plant response rating, Purslane: 0
[6]; Postemergence, 16 g ai/ha
  Plant response rating, Purslane: 0
[6]; Postemergence, 31 g ai/ha
  Plant response rating, Purslane: 0
[6]; Postemergence, 62 g ai/ha
  Plant response rating, Purslane: 0
[7]; 16 g ai/ha, Preemergence
  Plant response rating, Foxtail, Green: 20
[7]; 31 g ai/ha, Preemergence
  Plant response rating, Foxtail, Green: 65
[7]; 62 g ai/ha, Preemergence
  Plant response rating, Foxtail, Green: 100
[7]; Postemergence, 8 g ai/ha
  Plant response rating, Foxtail, Green: 70
[7]; Postemergence, 16 g ai/ha
  Plant response rating, Foxtail, Green: 80
[7]; Postemergence, 31 g ai/ha
  Plant response rating, Foxtail, Green: 90
[7]; Postemergence, 62 g ai/ha
  Plant response rating, Foxtail, Green: 100
[8]; 16 g ai/ha, Preemergence
  Plant response rating, Guineagrass: 98
[8]; 31 g ai/ha, Preemergence
  Plant response rating, Guineagrass: 100
[8]; 62 g ai/ha, Preemergence
  Plant response rating, Guineagrass: 100
[8]; Postemergence, 8 g ai/ha
  Plant response rating, Guineagrass: 90
[8]; Postemergence, 16 g ai/ha
  Plant response rating, Guineagrass: 98
[8]; Postemergence, 31 g ai/ha
  Plant response rating, Guineagrass: 100
[8]; Postemergence, 62 g ai/ha
  Plant response rating, Guineagrass: 100
[9]; 16 g ai/ha
  Plant response rating, Kochia: 0
[9]; 31 g ai/ha
  Plant response rating, Kochia: 0
[10]; 16 g ai/ha, Preemergence
  Plant response rating, Crabgrass, Large: 40
[10]; 31 g ai/ha, Preemergence
  Plant response rating, Crabgrass, Large: 95
[10]; 62 g ai/ha, Preemergence
  Plant response rating, Crabgrass, Large: 100
[10]; Postemergence, 8 g ai/ha
  Plant response rating, Crabgrass, Large: 35
[10]; Postemergence, 16 g ai/ha
  Plant response rating, Crabgrass, Large: 95
[10]; Postemergence, 31 g ai/ha
  Plant response rating, Crabgrass, Large: 95
[10]; Postemergence, 62 g ai/ha
  Plant response rating, Crabgrass, Large: 100
[11]; 16 g ai/ha, Preemergence
  Plant response rating, Crabgrass, Naked: 80
[11]; 31 g ai/ha, Preemergence
  Plant response rating, Crabgrass, Naked: 100
[11]; 62 g ai/ha, Preemergence
  Plant response rating, Crabgrass, Naked: 100
[11]; Postemergence, 8 g ai/ha
  Plant response rating, Crabgrass, Naked: 30
[11]; Postemergence, 16 g ai/ha
  Plant response rating, Crabgrass, Naked: 80
[11]; Postemergence, 31 g ai/ha
  Plant response rating, Crabgrass, Naked: 98
[11]; Postemergence, 62 g ai/ha
  Plant response rating, Crabgrass, Naked: 100
[12]; 16 g ai/ha, Preemergence
  Plant response rating, Morningglory: 0
[12]; 31 g ai/ha, Preemergence
  Plant response rating, Morningglory: 0
[12]; 62 g ai/ha, Preemergence
  Plant response rating, Morningglory: 35
[12]; Postemergence, 8 g ai/ha
  Plant response rating, Morningglory: 0
[12]; Postemergence, 16 g ai/ha
  Plant response rating, Morningglory: 0
[12]; Postemergence, 31 g ai/ha
  Plant response rating, Morningglory: 0
[12]; Postemergence, 62 g ai/ha
  Plant response rating, Morningglory: 30
[13]; 16 g ai/ha, Preemergence
  Plant response rating, Prickly Sida: 0
[13]; 31 g ai/ha, Preemergence
  Plant response rating, Prickly Sida: 0
[13]; 62 g ai/ha, Preemergence
  Plant response rating, Prickly Sida: 0
[13]; Postemergence, 8 g ai/ha
  Plant response rating, Prickly Sida: 0
[13]; Postemergence, 16 g ai/ha
  Plant response rating, Prickly Sida: 0
[13]; Postemergence, 31 g ai/ha
  Plant response rating, Prickly Sida: 0
[13]; Postemergence, 62 g ai/ha
  Plant response rating, Prickly Sida: 0
[14]; 16 g ai/ha, Preemergence
  Plant response rating, Nutsedge, Purple: 0
[14]; 31 g ai/ha, Preemergence
  Plant response rating, Nutsedge, Purple: 35
[14]; 62 g ai/ha, Preemergence
  Plant response rating, Nutsedge, Purple: 98
[14]; Postemergence, 8 g ai/ha
  Plant response rating, Nutsedge, Purple: 0
[14]; Postemergence, 16 g ai/ha
  Plant response rating, Nutsedge, Purple: 0
[14]; Postemergence, 31 g ai/ha
  Plant response rating, Nutsedge, Purple: 0
[14]; Postemergence, 62 g ai/ha
  Plant response rating, Nutsedge, Purple: 0
[15]; 16 g ai/ha, Preemergence
  Plant response rating, Quackgrass: 35
[15]; 31 g ai/ha, Preemergence
  Plant response rating, Quackgrass: 65
[15]; 62 g ai/ha, Preemergence
  Plant response rating, Quackgrass: 70
[15]; Postemergence, 8 g ai/ha
  Plant response rating, Quackgrass: 0
[15]; Postemergence, 16 g ai/ha
  Plant response rating, Quackgrass: 0
[15]; Postemergence, 31 g ai/ha
  Plant response rating, Quackgrass: 0
[15]; Postemergence, 62 g ai/ha
  Plant response rating, Quackgrass: 30
[16]; 16 g ai/ha, Preemergence
  Plant response rating, Sandbur, S.: 30
[16]; 31 g ai/ha, Preemergence
  Plant response rating, Sandbur, S.: 100
[16]; 62 g ai/ha, Preemergence
  Plant response rating, Sandbur, S.: 100
[16]; Postemergence, 8 g ai/ha
  Plant response rating, Sandbur, S.: 65
[16]; Postemergence, 16 g ai/ha
  Plant response rating, Sandbur, S.: 80
[16]; Postemergence, 31 g ai/ha
  Plant response rating, Sandbur, S.: 95
[16]; Postemergence, 62 g ai/ha
  Plant response rating, Sandbur, S.: 100
[17]; 16 g ai/ha, Preemergence
  Plant response rating, Surinam Grass: 100
[17]; 31 g ai/ha, Preemergence
  Plant response rating, Surinam Grass: 100
[17]; 62 g ai/ha, Preemergence
  Plant response rating, Surinam Grass: 100
[17]; Postemergence, 8 g ai/ha
  Plant response rating, Surinam Grass: 90
[17]; Postemergence, 16 g ai/ha
  Plant response rating, Surinam Grass: 90
[17]; Postemergence, 31 g ai/ha
  Plant response rating, Surinam Grass: 100
[17]; Postemergence, 62 g ai/ha
  Plant response rating, Surinam Grass: 100

Reference: patent publication US20100267561A1, “HERBICIDAL PYRIDAZINONE DERIVATIVES” (priority 2007, published 2010)
